Laboratory results reported in paper PMC8282492 (Journal of Ginseng Research, 2020).

T1: human 14-3-3 ζ (Homo sapiens, UniProt P63104)
T1 sequence (P63104 1-245): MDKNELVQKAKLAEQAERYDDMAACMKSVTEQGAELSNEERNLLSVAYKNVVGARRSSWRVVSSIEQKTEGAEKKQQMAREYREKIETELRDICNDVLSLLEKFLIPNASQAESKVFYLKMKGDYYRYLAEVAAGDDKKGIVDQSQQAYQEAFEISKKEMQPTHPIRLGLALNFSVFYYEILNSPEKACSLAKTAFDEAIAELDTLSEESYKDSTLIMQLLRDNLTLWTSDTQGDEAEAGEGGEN

T2: 14-3-3 ζ protein (human), P63104
T2 chain: T1 sequence (P63104 1-245)

B1: 14-3-3 ζ protein, P63104 1-245 (natural protein)
chain: T1 sequence (P63104 1-245)

Legend:
human 14-3-3 ζ = target: T1, human 14-3-3 ζ; assay: BLI direct binding response of ginsenosides to immobilised 14-3-3 ζ; conditions: compound concentration 271μM; Fig. 3A and B
[1] = target: T2, 14-3-3 ζ protein (human), P63104; assay: crystal structure; conditions: remark: other sources report otherwise

Molecule | direct binding response to 14-3-3 ζ (BLI) (human 14-3-3 ζ) | stoichiometry N [1]
CC(C)=CCC[C@](C)(O)[C@H]1CC[C@]2(C)[C@@H]1[C@H](O)C[C@@H]1[C@@]3(C)CC[C@H](O[C@@H]4O[C@H](CO)[C@@H](O)[C@H](O)[C@H]4O)C(C)(C)[C@@H]3CC[C@]12C [Rh2] | significant affinity | 
CC(C)=CCC[C@](C)(O)[C@H]1CC[C@]2(C)[C@@H]1[C@H](O)C[C@@H]1[C@@]3(C)CC[C@H](O)C(C)(C)[C@@H]3[C@@H](O[C@@H]3O[C@H](CO)[C@@H](O)[C@H](O)[C@H]3O)C[C@]12C [Rh1] | barely interacted | 
CC(C)=CCC[C@](C)(O[C@@H]1O[C@H](CO)[C@@H](O)[C@H](O)[C@H]1O)[C@H]1CC[C@]2(C)[C@@H]1[C@H](O)C[C@@H]1[C@@]3(C)CC[C@H](O)C(C)(C)[C@@H]3CC[C@]12C [CK, ginsenoside compound K] | significant affinity | 
CC(C)=CCC[C@](C)(O)[C@H]1CC[C@]2(C)[C@@H]1[C@H](O)C[C@@H]1[C@@]3(C)CC[C@H](O)C(C)(C)[C@@H]3[C@@H](O)C[C@]12C [PPT, 20(S)-protopanaxatriol] | significant affinity | 
CC(C)=CCC[C@](C)(O[C@@H]1O[C@H](CO)[C@@H](O)[C@H](O)[C@H]1O)[C@H]1CC[C@]2(C)[C@@H]1[C@H](O)C[C@@H]1[C@@]3(C)CC[C@H](O)C(C)(C)[C@@H]3[C@@H](O)C[C@]12C [F1] | barely interacted | 
CC(C)=CCC[C@](C)(O[C@@H]1O[C@H](CO[C@@H]2O[C@H](CO)[C@@H](O)[C@H](O)[C@H]2O)[C@@H](O)[C@H](O)[C@H]1O)[C@H]1CC[C@]2(C)[C@@H]1[C@H](O)C[C@@H]1[C@@]3(C)CC[C@H](O[C@@H]4O[C@H](CO)[C@@H](O)[C@H](O)[C@H]4O[C@@H]4O[C@H](CO)[C@@H](O)[C@H](O)[C@H]4O)C(C)(C)[C@@H]3CC[C@]12C [Rb1] | barely interacted | 
CC(C)=CCC[C@](C)(O[C@@H]1O[C@H](CO)[C@@H](O)[C@H](O)[C@H]1O)[C@H]1CC[C@]2(C)[C@@H]1[C@H](O)C[C@@H]1[C@@]3(C)CC[C@H](O)C(C)(C)[C@@H]3[C@@H](O[C@@H]3O[C@H](CO)[C@@H](O)[C@H](O)[C@H]3O)C[C@]12C [Rg1] | significant affinity | 
B1 |  | 2
